In patent US20250375452A1 (AMGEN INC., priority 2021, published 2025):

Key:
[1] = Phase 1 fixed-sequence study, sotorasib with omeprazole under fasted conditions; type: in vivo, human
[2] = Phase 1 fixed-sequence crossover study, sotorasib with famotidine or omeprazole under fed conditions; type: in vivo, human; details: for decrease of sotorasib AUC / decrease of sotorasib Cmax: fed conditions
Method: Safety and tolerability monitoring was performed throughout the study.
A total of […] healthy subjects (1 woman and 13 men) were enrolled in the study. Thirteen out of the 14 subjects received all treatments and completed the study.

[3] = Phase 1 fixed-sequence study, sotorasib with rifampin; type: in vivo, human
[4] = system: extracellular signal-regulated kinase (ERK); details: preclinical studies; cited from earlier work
[5] = Phase 1 fixed-sequence study, digoxin with sotorasib; type: in vivo, human
Method: Blood samples for digoxin PK were collected predose and up to 144 hours post-digoxin dose. Samples were measured using validated high-performance liquid chromatography tandem mass spectrometry methods.

[6] = Phase 1 fixed-sequence study, midazolam with sotorasib; details: 2 mg midazolam coadministered with 960 mg sotorasib after 14 days of daily sotorasib vs midazolam alone, 5 subjects
[7] = coadministration with omeprazole vs sotorasib alone, fasted state
[8] = famotidine 10 hours prior to and 2 hours after a single dose of sotorasib
[9] = repeat doses of omeprazole with a single dose of sotorasib
[10] = coadministration with a single dose of sotorasib vs digoxin alone
[11] = with sotorasib vs digoxin alone

C=CC(=O)N1CCN(c2nc(=O)n(-c3c(C)ccnc3C(C)C)c3nc(-c4c(O)cccc4F)c(F)cc23)[C@@H](C)C1 (atropisomer, axis not shown) [sotorasib, 6-fluoro-7-(2-fluoro-6-hydroxyphenyl)-(1M)-1-[4-methyl-2-(propan-2-yl)pyridin-3-yl]-4-[(2S)-2-methyl-4-(prop-2-enoyl)piperazin-1-yl]pyrido[2,3-d]pyrimidin-2(1H)-one]
safety and tolerability ([1]; coadministered with 40 mg omeprazole or administered alone, healthy subjects): safe and well tolerated
decrease of sotorasib AUCinf [1, 7]: 42%
decrease of sotorasib Cmax [1, 7]: 57%
Mean terminal half-life (t1/2), coadministration compared to alone ([1]; with omeprazole vs sotorasib alone, fasted): similar
safety and tolerability ([2]; 960 mg sotorasib with single dose 40 mg famotidine and after multiple daily 40 mg omeprazole, fed, healthy subjects): safe and well tolerated
decrease of sotorasib AUC [2, 8]: 38%
decrease of sotorasib Cmax [2, 8]: 35%
decrease of sotorasib AUC [2, 9]: 57%
decrease of sotorasib Cmax [2, 9]: 65%
safety and tolerability ([3]; coadministered with 600 mg rifampin or administered alone, healthy subjects): safe and well tolerated
CYP3A4 substrate status ([3]; inferred from multiple doses of rifampin, consistent with in vitro data): is a CYP3A4 substrate
OATP1B1 substrate status ([3]; inferred from single dose of rifampin): not a substrate of OATP1B1
decrease of sotorasib AUCinf ([3]; multiple doses of rifampin): 51%
decrease of sotorasib Cmax ([3]; multiple doses of rifampin): 35%
phosphorylation of extracellular signal-regulated kinase (ERK) [4]: inhibited nearly all detectable phosphorylation

C[C@H]1O[C@@H](O[C@H]2[C@@H](O)C[C@H](O[C@H]3[C@@H](O)C[C@H](O[C@H]4CC[C@@]5(C)[C@H](CC[C@@H]6[C@@H]5C[C@@H](O)[C@]5(C)[C@@H](C7=CC(=O)OC7)CC[C@]65O)C4)O[C@@H]3C)O[C@@H]2C)C[C@H](O)[C@@H]1O [digoxin]
increase of digoxin AUCinf [5, 10]: approximately 21%
increase of digoxin Cmax [5, 10]: ~91%
safety and tolerability ([5]; single doses of 0.5 mg digoxin alone or coadministered with 960 mg sotorasib): safe and well tolerated
Digoxin mean terminal half-life (t1/2), coadministration compared to alone [5, 11]: similar
Digoxin median time to maximal plasma concentration (tmax), coadministration compared to alone [5, 11]: similar

Cc1ncc2n1-c1ccc(Cl)cc1C(c1ccccc1F)=NC2 [midazolam]
decrease of midazolam AUV [6]: 53%
decrease of midazolam Cmax [6]: 48%
